Measurements published in patent publication US7968596B2, “Preparation and diabetic use of Gibberellins” (Australian Biomedical Company Pty, Ltd., priority 2001, dated 2011).

Legend:
Diabetic Rats = assay: Effect on streptozotocin-induced diabetic rats (blood glucose, body weight); format: in vivo, Male Wistar rats; conditions: for Blood glucose level after day 20th, 2 hours: 2 hours after administration; for Blood glucose level after day 20th, 5 hours: 5 hours after administration
Protocol: Male Wistar rats (290 g˜330 g) were weighed and lightly anaesthetized (4% halothane, 2:1 O2/N2O) so that blood glucose levels could be measured via a tail vein sample, using a Precision Q.I.D. glucometer. Diabetes was then induced by a single tail vein injection of streptozotocin (STZ, 60 mg/kg), which was dissolved immediately prior to use in citrate buffer (50 mM citric acid and 50 mM trisodium citrate; pH 4.5). An equivalent volume of citrate buffer was injected into age-matched control rats.
Rats were housed in groups of two during the experiment. Animal house temperature was maintained at 20° C. (±2° C.) with a 12 hour light/dark cycle, and rats were allowed free access to food and water.
Forty-eight hours after the administration of STZ (60 mg/kg), a blood glucose sample was taken and animals with blood glucose levels≧16 mM were considered to be diabetic. Rats were then randomly divided into groups. The slow-acting, Lente Monotard insulin was used and Gibberellin sodium salt was made up as required in distilled water immediately prior to use. Blood glucose readings were obtained two hours or 5 hours after the administration of drug(s) every three days.

rats = conditions: cited from earlier work
Human skin cell culture = assay: Effect of Gibberellin A3 on cell growth compared to EGF in vitro (human skin cell culture, keratinocytes media); format: cell-based; conditions: for Results: cell growth / cell division rate: five days
Protocol: Human skin cell culture experiments were conducted by using keratinocytes media. Each well was seeded with 1,500 cells. Incubation was carried out at 37° C. for a period of five days.

mice = conditions: cited from earlier work
skin and eyes = conditions: in vivo; cited from earlier work
[1] = Group 1: Insulin 4 unit/rat sub-cutaneous daily
[2] = Group 2: Insulin 2 unit/rat sub-cutaneous daily
[3] = Keratinocyte medium containing no EGF, but containing Gibberellin A3 (5 μg/ml)
[4] = Perfect keratinocyte medium (containing EGF) plus Gibberellin A3 (5 μg/ml)

Row | Compound | Body weight change on the 30th day (Diabetic Rats; [1]) | Blood glucose level after day 20th, 2 hours (Diabetic Rats; Group 1: Insulin 4 unit/rat sub-cutaneous daily, STZ diabetic rats) | Blood glucose level after day 20th, 5 hours (Diabetic Rats; [1]) | Body weight change on the 30th day (Diabetic Rats; [2]) | Blood glucose level after day 20th, 2 hours (Diabetic Rats; [2]) | Blood glucose level after day 20th, 5 hours (Diabetic Rats; [2]) | acute oral LD50 (rats) | effect of presence of both EGF and Gibberellin A3 on the rate of cell growth (Human skin cell culture; Experiment 3.2, EGF plus Gibberellin A3 5 μg/ml) | stimulation of cell growth by Gibberellin A3 alone, compared to EGF (Human skin cell culture; Experiment 3.4, no EGF, Gibberellin A3 5 μg/ml) | Results: cell growth (Human skin cell culture; [3]) | cell division rate (Human skin cell culture; [3]) | Results: cell growth (Human skin cell culture; [4]) | cell division rate (Human skin cell culture; [4]) | acute oral LD50 (mice) | irritation to skin and eyes (skin and eyes)
1 | Insulin: slow-acting, Lente Monotard insulin | +8% | 4~5 mM | 3~5 mM | −8% | 15~18 mM | 14~16 mM |  |  |  |  |  |  |  |  | 
2 | C=C1C[C@]23C[C@@]1(O)CC[C@H]2[C@@]12C=C[C@H](O)[C@@](C)(C(=O)O1)[C@H]2[C@@H]3C(=O)O [Gibberellin A3] |  |  |  |  |  |  | 6300 mg/kg | no additive effect | as effectively as EGF | Very good growth (cell | division rate = 100) | Very good growth (cell | division rate = 100) | > 15000 mg/kg | non-irritating
